Experimental data: BindingDB's records for doi:10.1016/s0960-894x(98)00542-3 (University of Tokyo, 1998)

The molecules below were run against Chitinase (Trichoderma) (assay: Compound was evaluated for inhibitory activity against Trichoderma Chitinase).

| SMILES | IC50 [nM] |
| --- | --- |
| CC(=O)NC(/C=N/NC(=O)CCCCCNC(=O)CCCCC1SC[C@H]2NC(=O)N[C@@H]12)C(OC(CO)CO)OC1C(CO)OC(OC2C(O)C3N=C(N(C)C)OC3C2CO)C(NC(C)=O)C1O (some centres undefined) | 41 |
| CC(=O)NC(CO)C(OC(CO)CO)OC1C(CO)OC(OC2C(O)C3N=C(N(C)C)OC3C2CO)C(NC(C)=O)C1O (centres undefined) | 80 |
| CC(=O)NC(/C=N/NC(=O)CCCCCNC(=O)CCCCC1SC[C@H]2NC(=O)N[C@@H]12)C(OC(C=O)CO)OC1C(CO)OC(OC2C(O)C3N=C(N(C)C)OC3C2CO)C(NC(C)=O)C1O (some centres undefined) | 41.1 |
| CC(=O)NC(/C=N/NC(=O)CCCCCNC(=O)CCCCC1SC[C@@H]2NC(=O)N[C@H]12)C(OC(/C=N/NC(=O)CCCCCNC(=O)CCCCC1SC[C@@H]2NC(=O)N[C@H]12)CO)OC1C(CO)OC(OC2C(O)C3N=C(N(C)C)OC3C2CO)C(NC(C)=O)C1O (some centres undefined) | 7.53 |
